Experimental data as given in PMC10366102, “Dose escalation and expansion cohorts in patients with advanced breast cancer in a Phase I study of the CDK7-inhibitor samuraciclib” (Nature Communications, 2023).
Entries after “also recorded” stand apart in the source; their conditions may differ.

Experiments:
CYP2C9 = system: CYP2C9; design: method as in ref IB; conditions: human microsomes; ref IB; cited from earlier work
[1] = design: method as in ref IB; conditions: ref IB, cited from earlier work
pPolII = assay: Immunohistochemistry H-score in paired tumor biopsies, pPolII; type: in vivo, human
Protocol: Per-protocol ctDNA samples were taken in Module 1B-1 at screening, C1D1, C2D1 and on D1 of alternating cycles from Cycle 3; in Module 2A at screening, C1D1 and at either C2D1 (240 mg) or C2D15 (360 mg) for mutational analysis[24],[33], (Supplementary Information). pPolII in lymphocytes and pPolII and pCDK1/2/3 in core needle tissue samples from patients recruited to the paired biopsy cohort were evaluated for on-target pharmacodynamic analyses. […]
pharmacodynamic effects in tumor tissue. […]
variability in H-score was observed between sections. […]
H-scores for pre-dose and on-study biopsies and summary statistics for the observed H-score when stained for pCDK1/2/3 and pPolII are shown in Supplementary Table 11. Significance was calculated using Student’s one-tailed paired t-test, where the alternative hypothesis was that on-study samples had

[2] = system: patients with advanced malignancies; assay: Safety pooled across study modules; type: in vivo
Protocol: These were summarized by Medical Dictionary for Regulatory
adverse events (SAEs) were analyzed and reported separately. Details of any deaths were listed. All
were listed individually by patient and summarized descriptively. For urinalysis parameters, any
positive. Abnormal physical examina tion findings were listed.

[3] = Module 2A trough PK of samuraciclib and fulvestrant; type: in vivo, human
Description: PK parameters were derived using standard non-compartmental methods.
o. Radionuclide Bone Scans, Whole Body should be performed at Screening. See also footnote a.
• If at Screening bone lesions were identified, scans will be repeated during the active treatment phase and during follow-up visits every 16 weeks (± 7 days) from Cycle 1 Day
1, and at the time of confirmation of CR.
• If no bone lesions were identified at Screening, bone scans will only be performed when clinically indicated (i.e., patient describes new or worsening bone pain or has
increasing alkaline phosphatase level or other signs and symptoms of new/progressing bone metastases) but are required at the time of confirmation of CR. New abnormalities
found on subsequent bone scans must be confirmed by CT scan with bone windows or MRI.
p. Adverse Event Reporting : Serious Adverse Events (SAEs) must be reported from the time the patient provides informed consent through and including 28 calendar days after the last
administration of the study drug. SAEs occurring after the active reporting period has ended should be reported if the investigator becomes aware of them. All SAEs that the investigator
believes have at least a reasonable possibility of being related to the study drugs are to be reported to the Sponsor. All AEs (serious and non-serious) should be recorded on the eCRF […]

[4] = design: method as in ref IB; conditions: ref IB; cited from earlier work
CYP2B6 = system: CYP2B6; design: method as in ref IB; conditions: human microsomes; ref IB; cited from earlier work
[5] = Module 1 (both parts) and Module 2A
[6] = as of 16 November 2020, 115 patients

SMILES: CC(C)c1cnn2c(NCc3ccccc3)cc(NC[C@H]3CCNC[C@@H]3O)nc12 [samuraciclib, Samuraciclib]
- Overall turnover ([1]; human hepatocytes): low
- Phase II metabolism (e.g., glucuronidation) ([1]; mouse and human hepatocytes): No evidence
- pPolII H-Score, On study, average (pPolII; Average 240mg OD patients, pre-dose 239): 208
- pPolII H-Score, On study, average (pPolII; Average 360mg OD patients, pre-dose 277): 271
- pPolII H-Score, On study, average (pPolII; Average all patients, pre-dose 258): 240
- pPolII H-Score, On study (pPolII; HR+ breast cancer, breast biopsy, 360 mg OD, pre-dose 286): 271
- pPolII H-Score, On study (pPolII; HR+ breast cancer, liver biopsy, 240 mg OD, pre-dose 243): 225
- pPolII H-Score, On study (pPolII; HR+ breast cancer, liver biopsy, 240 mg OD, pre-dose 251): 232
- pPolII H-Score, On study (pPolII; HR+ breast cancer, liver biopsy, 360 mg OD, pre-dose 271): 262
- pPolII H-Score, On study (pPolII; HR+ breast cancer, liver biopsy, 360 mg OD, pre-dose 273): 281
- pPolII H-Score, On study (pPolII; Rhabdomyosarcoma, axilla biopsy, 240 mg OD, pre-dose 223): 167
- pPolII in tumor tissue (pPolII; paired biopsy cohort): reduction of phosphorylated RNA polymerase II; also recorded: A reduction in pPolII was also seen in tumor tissue
- Events of Grade 4 thrombocytopenia ([2]; 1 at 180mg BID and 1 at 360mg OD): 2 events
- Events of Grade 1 platelet count decreased ([2]; 1 at 240mg OD and 2 at 360mg): 3 events
- Patients with at least one AE considered related to samuraciclib ([2]; 96/98 patients, Modules 1A, 1B-1, 2A): 98.0%
- Events of neutropenia/white blood cell count decreased ([2]; Grade 1 at 360mg OD and 180mg BID): 2 events
- Deaths considered related to samuraciclib treatment [2, 5]: None
- Patients who died following an AE [2, 5]: 5 patients
- SAEs considered related to study treatment [2, 5]: 6
- Serious adverse events (not including deaths) [2, 5]: 27 patients
- Recovery of platelets after stopping samuraciclib ([2]; Module 1B-1 and Module 2A): ≤ 28 days
- Patients with diarrhoea, nausea and vomiting ([2]; across dose levels, largely Grade 1, as of 16 November 2020): more than 75%
- Events of anaemia [2, 6]: 16 events
- Events of increased ALT [2, 6]: 14 events
- Events of increased AST [2, 6]: 16 events
- Platelet related AEs [2, 6]: 13
- Events of Grade 1 thrombocytopenia ([2]; at 360mg OD): 4 events
- Events of Grade 2 platelet count decreased ([2]; at 360mg OD): 1 event
- Events of Grade 2 thrombocytopenia ([2]; at 360mg OD): 2 events
- Events of Grade 3 thrombocytopenia ([2]; at 360mg OD): 1 event
- Thrombocytopenia reported as Grade ≥4 ([2]; discussion): 3 patients
- Interaction between samuraciclib and fulvestrant PK [3]: no fulvestrant interaction; also recorded: did not indicate an interaction; also recorded: No clinical PK interactions
- Phototoxicity [4]: not phototoxic
- IC50 (CYP2B6): > 50 µM
